# Laboratory results taken from article PMC11404609, “Gut microbiota-mediated C-sulfonate metabolism impairs the bioavailability and anti-cholestatic efficacy of andrographolide” (Gut Microbes, 2024).
# “And” between values parts separate entries of the source, which are not always exact repeats. Identical values can stand only once.
# How the values were obtained:
# [1] = In-situ single-pass intestinal perfusion of AP; assay type: in vivo; conditions: rats, AP 20 μM co-perfused with Na2SO4 40 μM vs AP alone
# Method: The rat intestinal perfusion experiment was conducted based on previous literature reports^6, 7. The experimental animals were divided into two groups: Control and SO4^2- groups. Rats were anaesthetised via the intraperitoneal injection of 50% urethane at a dose of 2.4 mL/kg. Two segments of the intestine, specifically the duodenum and jejunum, each measuring 5-10 cm in length, were cannulated simultaneously. The primary tube was affixed to a syringe controlled by an infusion pump (Model PHD2000 Harvard Apparatus, Cambridge, Massachusetts). The inlet cannula was insulated and maintained in a constant temperature of 37°C in circulating water bath to ensure the perfusate’s thermal stability. Following the surgical procedure, the two segments of Control group were perfused with 20 μM AP, and the two segments of SO4^2- group were co-perfused with AP (20 μM) and Na2SO4 (40 μM). The perfusion was conducted at the flow rate of 0.17 mL/min and perfusate samples were collected every 15 min (15, 30, 45, 60, 75, and 90 min). The concentrations of AP and APM in the perfusate at the outlet were determined through UPLC-MS/MS analysis.
# intestinal flora of mice = assay: Co-culturing AP with cecum samples from mice; assay type: in vitro ADME; conditions: AP 10 μg/mL, anaerobic, 37°C, 6 h
# Method: The cecum contents from mice were collected and mixed with sterilized anaerobic medium in a ratio of 1.0 g to 10 mL, with gentle agitation. After filtered, the mixed medium containing the intestinal flora was placed in an anaerobic environment and preincubated at 37°C for 30 min before use. Mixed medium with or without APS reductase inhibitor bromocriptine mesylate (20 μg/mL) was incubated with AP (10 μg/mL), while autoclaved mixed medium without APS reductase inhibitor served as the control. Incubation was performed in a shaking incubator at 37°C for 6 h, with strict maintenance of anaerobic condition throughout the process.[44] Similarly, D. piger (0.2 mL, 1 × 10^8 CFU/mL) with or without inhibitor, was incubated with AP for 0, 3, 6, and 12 h, with autoclaved D. piger without inhibitor serving as the control. The reaction was terminated by adding cold methanol contained IS. And then samples were analyzed by UPLC-MS/MS to detect the concentrations of AP and APM. Concentrations of APS reductase and HSO3^− were also determined at the end of incubation.
# For the determination of APS reductase concentration, the supernatant from mouse cecum contents and the D. piger strain were assessed using microorganism APS reductase elisa assay kit (Shanghai Senxingyan Biotechnology Co., Ltd., China), following the instructions provided with the kit. For the determination of HSO3^− concentration, cecum contents from mice or rats were weighed and homogenized in five volumes of normal saline (based on tissue weight). The homogenate was then subjected to centrifugation at 13,000 rpm and 4°C for 15 min. The supernatant (or perfusate) was collected and mixed with 0.2% formaldehyde, 0.05% basic fuchsin, and 0.01% EDTA-Na2 in a ratio of 1:1:1:9 under acidic conditions. To establish a standard curve, different concentrations of NaHSO3 were used. Subsequently, the absorbance of the resulting solutions was measured at a wavelength of 560 nm after 40 min.
# [2] = Plasma pharmacokinetics of AP after oral administration in rats; assay type: in vivo; conditions: for AUC(0-t) / Cmax / Tmax / half-life / AUC(0-inf): rat, plasma, po, 120 mg/kg, mean ± SD; for AUC(0-t) / Cmax / Tmax / half-life / AUC(0-inf) / Fr (%) relative oral bioavailability: AP 120 mg/kg oral gavage
# Method: Control and ABX rats were orally administered a single dose of AP at 120 mg/kg. Blood samples (500 μL) were collected at predetermined time intervals (0, 5, 10, 20, 30, 40, 60, 90, 120, 180, 240, 360, and 480 min). In some cases, APS reductase inhibitor bromocriptine mesylate (20 mg/kg, p.o.) or Na2SO4 (200 mg/kg, p.o.) was given to rats 1 week before AP treatment.
# The pharmacokinetic parameters of AP including peak time (Tmax), maximum concentration (Cmax), area under the curve from zero time to the last time point measured (AUC0-t), area under the curve from zero time to infinity (AUC0-∞), and elimination half-life (t1/2) were estimated using DAS 2.0 software (Shanghai, China). The relative oral bioavailability (Fr) of AP was calculated by the following equation: Fr(%)=AUC0−∞of ABX/Inhibitor/SO42−/D.piger/AUC0−∞of Control×100%
# An ACQUITY^TM UPLC-MS/MS system equipped with an ACQUITY^TM UPLC BEH C18 Column (50 × 2.1 mm I.D., 1.7 μm, Waters, Milford, MA, USA) was utilized for the quantification of AP and APM as previously described.[47] Briefly, the detection samples (50 μL) were mixed with 50 μL of IS (50 ng/mL). AP and APM were extracted by 400 μL cold methanol. Supernatants were dried under nitrogen stream. Then, the residue was dissolved with 50% methanol in water, centrifuged for 30 min at 13,000 rpm, and 10 µL of the supernatant was subjected to UPLC-MS/MS analysis. The mobile phases consisted of eluent A (water) and eluent B (methanol) with a gradient elution as follows: 0–0.8 min, 10% B; 0.8–1.2 min, 10–90% B; 1.2–5.0 min, 90% B; 5.0–5.5 min, 90–10% B; 5.5–7.0 min, 10% B. The flow rate was 0.3 mL/min and the injection volume of all samples was 10 μL. The quantification of AP, APM and IS was performed by UPLC-MS/MS using an MRM method with the transitions of m/z 349.1→m/z 287.2 for AP, m/z 413.2→m/z 287.2 for APM, m/z 269→m/z 133 for IS.
# [3] = SD, rats, Control group (Table 1), n = 4
# [4] = Sprague-Dawley (SD), rats, Control group (Table 2), n = 4
# [5] = Sprague-Dawley (SD), rats, Inhibitor group (bromocriptine mesylate 20 mg/kg p.o. 1 week before), n = 4
# [6] = Sprague-Dawley (SD), rats, SO4^2- group (Na2SO4 200 mg/kg p.o. 1 week before), n = 5
# [7] = Sprague-Dawley, rats, Control group (Table 2), n = 4
# [8] = Sprague-Dawley, rats, Inhibitor group (bromocriptine mesylate 20 mg/kg p.o. 1 week before), n = 4
# [9] = Sprague-Dawley, rats, SO4^2- group (Na2SO4 200 mg/kg p.o. 1 week before), n = 5
structure (smiles),measurement,setting,value
"C=C1CC[C@@H]2[C@](C)(CO)[C@H](O)CC[C@@]2(C)[C@@H]1C/C=C1/C(=O)OC[C@H]1O [AP, Andrographolide]",AP C-sulfonate metabolism,[1],substantial increase
same,conversion of AP into APM by the intestinal flora,intestinal flora of mice,notable conversion
same,enhancement in the relative oral bioavailability of AP,[2]; ABX-treated rats vs Control,70.11% and 70%
same,AUC(0-t),"[2]; SD, rats, ABX group, n = 4",4430 ng·h/mL
same,Cmax,"[2]; SD, rats, ABX group, n = 4",1330 ± 250 ng/mL
same,Tmax,"[2]; SD, rats, ABX group, n = 4",42.5 min
same,half-life,"[2]; SD, rats, ABX group, n = 4",139 ± 44 min
same,AUC(0-t),[2]; [3],2360 ng·h/mL
same,Cmax,[2]; [3],690 ± 190 ng/mL
same,Tmax,[2]; [3],50 min
same,half-life,[2]; [3],184 ± 55.7 min
same,AUC(0-inf),[2]; [4],3690 ng·h/mL
same,AUC(0-t),[2]; [4],3440 ng·h/mL
same,AUC(0-inf),[2]; [5],8020 ng·h/mL
same,AUC(0-t),[2]; [5],7520 ng·h/mL
same,AUC(0-inf),[2]; [6],1870 ng·h/mL
same,AUC(0-t),[2]; [6],1360 ng·h/mL
same,half-life,[2]; [6],263 ± 194 min
same,AUC(0-inf),"[2]; Sprague-Dawley, rats, ABX group, n = 4",5110 ng·h/mL
same,AUC(0-inf),"[2]; Sprague-Dawley, rats, Control group (Table 1), n = 4",3000 ng·h/mL
same,Cmax,[2]; [7],1420 ± 710 ng/mL
same,Tmax,[2]; [7],30 min
same,half-life,[2]; [7],122 ± 23.8 min
same,Cmax,[2]; [8],2750 ± 710 ng/mL
same,Tmax,[2]; [8],35 min
same,half-life,[2]; [8],109 ± 35.4 min
same,Cmax,[2]; [9],490 ± 190 ng/mL
same,Tmax,[2]; [9],32 min
same,Fr (%) relative oral bioavailability,"[2]; rats, ABX group vs Control (AUC0-∞ ratio)",170.11%
same,Fr (%) relative oral bioavailability,"[2]; rats, Inhibitor group vs Control (AUC0-∞ ratio)",217.24%
same,Fr (%) relative oral bioavailability,"[2]; rats, SO4^2- group vs Control (AUC0-∞ ratio)",50.70%
same,increase in AP bioavailability,"[2]; rats, inhibition of APS reductase by bromocriptine mesylate",117.24% and 117%
same,reduction in AP bioavailability,"[2]; rats, treatment of Na2SO4",49.30%
